Data as given in ChEMBL document CHEMBL1128435, “Synthesis of carbon-11-, fluorine-18-, and iodine-125-labeled GABAA-gated chloride ion channel blockers: substituted 5-tert-butyl-2-phenyl-1,3-dithianes and -dithiane oxides” (J Med Chem, 1995).

Assays:
[1] = Partition coefficient (logP); format: physicochemical; conditions: octanol/water
[2] = target: GABA-A receptor; anion channel; assay: In vitro displacement of [3H]TBOB from Gamma-aminobutyric acid A (GABA-A) receptor of rat brain

Compound	logP [1]	Ki [2] [nM]
CC(C)(C)C1CSC(c2ccc(F)cc2)SC1 (stereo unspecified)	4.97	–
CC(C)(C)C1CS(=O)(=O)C(C)(c2ccc(I)cc2)S(=O)(=O)C1 (stereo unspecified)	1.95	105
CC(C)(C)C1CS(=O)(=O)C(c2ccc(F)cc2)S(=O)(=O)C1 (stereo unspecified)	0.43	180
CC1(c2ccc(C#N)cc2)SCC(C(C)(C)C)CS1 (stereo unspecified)	4.89	–
CC(C)(C)C1CS(=O)(=O)C(C)(c2ccc(C#N)cc2)S(=O)(=O)C1 (stereo unspecified)	0.351	87
CC(C)(C)C1CSC(c2ccc(C#N)cc2)SC1 (stereo unspecified)	4.38	240
C#Cc1ccc(C2SCC(C(C)(C)C)CS2)cc1 (stereo unspecified)	4.96	85
CC1(c2ccc(I)cc2)SCC(C(C)(C)C)CS1 (stereo unspecified)	6.5	1900
CC(C)(C)[C@H]1CS(=O)(=O)[C@@](C)(c2ccc(C#N)cc2)S(=O)(=O)C1 (stereo in doubt; 9a)	–	200
CC(C)(C)[C@H]1CS(=O)(=O)[C@@](C)(c2ccc(C#N)cc2)S(=O)(=O)C1 (stereo in doubt; 9b)	–	41
